Laboratory results published in a melting point compilation (Tetko et al.; mined from patent text by program, amines drawn as free bases though some values may be those of a salt).

Q: With `Cc1nc2cnccc2n1-c1ccc(C2=Nc3cc(Cl)c(Cl)cc3N3CCN=C3C2)cc1` as the molecule, how does the melting point read?
A: 159 to 162 °C

Q: With `CC(C)(C)c1cc(C(=O)C(=O)O)cc(C(C)(C)C)c1O` as the molecule, how does the melting point read?
A: 125 to 126 °C

Q: With `CCOC(=O)c1nn(-c2ccc(OC)cc2)c2c1CCN(c1ccc(I)cc1)C2=O` as the molecule, how does the melting point read?
A: 173 to 175 °C

Q: With `Cc1ccccc1-c1c(CC(=O)O)c(=O)oc2ccc(Cl)cc12` as the molecule, how does the melting point read?
A: 180 to 183 °C

Q: Which melting point does the source give for `O=C(O)Cc1nn(Cc2ccc(Br)c(Cl)c2)c(=O)c2ccccc12` here?
A: 186 °C

Q: With `CC=CC=CC(=O)n1c(N)nc2ccccc21` as the molecule, how does the melting point read?
A: 215 °C

Q: Which melting point does the source give for `O=Cc1cc2n(c1)CCc1ccccc1C2=O` here?
A: 135 to 136 °C

Q: With `CC(=O)OCc1nc(C(CN(C(C)=O)C(C)(C)C)OC(C)=O)ccc1OC(C)=O` (centres undefined) as the molecule, how does the melting point read?
A: 60 to 64 °C

Q: With `CN1C[C@@H]2c3ccccc3Oc3ccc(Cl)cc3[C@H]2C1=O` (relative stereo) as the molecule, how does the melting point read?
A: 151 °C

Q: For `CCCCc1nnc(SCc2ccc(OC)cc2)n1Cc1ccc(OC(C(=O)O)c2ccccc2)cc1` (centres undefined), which melting point is on record?
A: 78 to 79 °C

Q: For `COc1cccc(C(=O)NCCc2ccc(-c3ccc(OC(C)(C)C(=O)O)cc3)cc2)c1OC`, which melting point is on record?
A: 184 °C

Q: With `CN1CCC(Oc2ccc(C(=O)NN)cc2)CC1` as the molecule, how does the melting point read?
A: 110 to 112 °C

Q: With `Nc1ncnc2[nH]cc(-c3ccc(Oc4ccccc4)cc3)c12` as the molecule, how does the melting point read?
A: 272 °C

Q: With `COc1ccc(NC(=O)C=NO)cc1C` as the molecule, how does the melting point read?
A: 163 to 165 °C

Q: Which melting point does the source give for `C#CC(C)(C)NC(=O)c1cnc(N2CCC(N3C(=O)OCc4ccccc43)CC2)c(Cl)c1` here?
A: 135 to 138 °C

Q: With `Cc1sc2c(Br)c3ccccc3c(-c3cc(Br)c(OC(C)C(=O)O)c(Br)c3)c2c1C` (centres undefined) as the molecule, how does the melting point read?
A: 224 to 225 °C

Q: Which melting point does the source give for `C=C(C#N)C(=O)OCC(C)(C)C` here?
A: 40 to 41 °C

Q: For `O=C(NC(=CC(=O)[C@H](Cc1ccccc1)N(Cc1ccccc1)Cc1ccccc1)Cc1ccccc1)c1ccccc1`, which melting point is on record?
A: 131 to 133 °C

Q: Which melting point does the source give for `CCN(CC)CCOc1ccc(Nc2ncc3c(n2)N(C)C(=O)N(c2c(C)cccc2C)C3)cc1` here?
A: 58 °C

Q: For `CCn1nc(-c2ccc(Cl)cc2[N+](=O)[O-])c2c1CCCC2=O`, which melting point is on record?
A: 184 °C

Q: With `O=S1c2ccccc2Nc2nccnc21` (centres undefined) as the molecule, how does the melting point read?
A: 261 to 263 °C

Q: For `CC1=C(C(=O)OC(C)C)C(c2cccc([N+](=O)[O-])c2)N(C(=O)OC(C)C)C(=S)N1` (centres undefined), which melting point is on record?
A: 138 °C

Q: With `CN(C)CCNC(=O)c1c[nH]c(=S)n1C1CCc2c(F)cc(F)cc2C1` (centres undefined) as the molecule, how does the melting point read?
A: 125 °C

Q: For `OC1CSC(Oc2cccnc2-c2ccc(OC(F)(F)F)cc2)C(O)C1O` (centres undefined), which melting point is on record?
A: 114 to 119 °C

Q: With `CCN(CC)CCNC(=O)c1cc(Cl)nc2ccc(I)cc12` as the molecule, how does the melting point read?
A: 106 to 108 °C

Q: Which melting point does the source give for `CNC(=O)CCCSc1nccc(NC(N)=NCC(F)(F)F)n1` here?
A: 153 to 155 °C

Q: For `CCCC1=Cc2c(c(C)c(C)c3oc(C(=O)O)cc23)C1=O`, which melting point is on record?
A: 242 °C

Q: With `CCOCCc1cc2c(nc(O)n2CCCCS(C)(=O)=O)c(N)n1` as the molecule, how does the melting point read?
A: 203 to 206 °C

Q: Which melting point does the source give for `CCCCCc1cccc2c1C(=O)N(OC1C(CO)OC(n3cnc4c(N)ncnc43)C1O)C2=O` (centres undefined) here?
A: 159 to 160 °C

Q: For `CC(C)Sc1cc2c3cc(SC(C)C)c(SC(C)C)cc3c3cc(SC(C)C)c(SC(C)C)cc3c2cc1SC(C)C`, which melting point is on record?
A: 165 to 168 °C

Q: Which melting point does the source give for `N#Cc1ccc(-c2cn(-c3ccc(Br)cc3)cn2)cc1` here?
A: 178 to 185 °C

Q: Which melting point does the source give for `O=[N+]([O-])c1cccc(NS(=O)(=O)c2ccccc2)c1` here?
A: 132 to 134 °C

Q: With `Cn1cncc1C(O)(c1ccc(C=O)cc1)c1ccc2c(c1)c(-c1cccc(Cl)c1)cc(=O)n2C` (centres undefined) as the molecule, how does the melting point read?
A: 208 °C

Q: Which melting point does the source give for `CCON=Cc1cc(-n2c(=O)cc(C(F)(F)F)n(C)c2=O)c(Cl)cc1Cl` here?
A: 140 to 143 °C

Q: For `COc1cc(N)c(Cl)cc1C(=O)N[C@H]1CCN(CCNc2nc3ccccc3[nH]2)C[C@H]1OC` (relative stereo), which melting point is on record?
A: 206 °C

Q: Which melting point does the source give for `CCc1c(C)nc2n(c1=O)C(C)CCC2=NNc1ccccc1` (centres undefined) here?
A: 135 to 137 °C

Q: Which melting point does the source give for `CC(=O)NC[C@H]1CN(c2ccc(/C=C3/C(=O)N(C)c4ccccc43)cc2)C(=O)O1` here?
A: 193 to 195 °C

Q: With `CCc1c(-c2ccc(O)cc2)c2cc(C(C)=O)c3cc(OC)cc1n32` as the molecule, how does the melting point read?
A: 245 to 246 °C

Q: For `CCCCC(CC(=O)Nc1cc(C(N)=O)ccc1C(C)(C)C)c1ccc(OC)cc1OCC` (centres undefined), which melting point is on record?
A: 184 to 186 °C

Q: Which melting point does the source give for `O=C(O)C1c2cc(Br)ccc2COc2ccc(Br)cc21` (centres undefined) here?
A: 179 to 182 °C

Q: Which melting point does the source give for `COc1cc2c(cc1O)OCC(c1ccc(O)cc1)C2` (centres undefined) here?
A: 159 °C

Q: Which melting point does the source give for `Clc1c2ccccc2nc2c1cnn2-c1ccccn1` here?
A: 153 to 156 °C

Q: For `NC(=O)NC[C@@H]1CCCc2cc(Sc3cccc(F)c3)cc(F)c21`, which melting point is on record?
A: 131 to 132 °C

Q: With `COc1ccc(S(N)(=O)=O)cc1C(=O)NCC1CCCN1CC1=CCCCC1` (centres undefined) as the molecule, how does the melting point read?
A: 167 °C

Q: For `Cc1ccc(S(=O)(=O)Oc2c(C(=O)c3ccc(S(C)(=O)=O)cc3Cl)cnn2C)cc1`, which melting point is on record?
A: 141 to 145 °C

Q: For `FC(F)(F)c1cc(I)ccc1-c1ccc(I)cc1C(F)(F)F`, which melting point is on record?
A: 119 to 120 °C

Q: With `CC(=O)Nc1cc2c3c(c1)[nH]c(=O)n3C[C@H](C)N(CC1CC1)C2` as the molecule, how does the melting point read?
A: 244 °C

Q: Which melting point does the source give for `COCCOc1ccc(/C=C/C(=O)O)c(OCc2nc(-c3ccccc3)oc2C)c1` here?
A: 194 to 196 °C

Q: For `CCCCCCCCCCOc1ccc(OCc2ccccc2)c(C(=O)N(CC(=O)O)CC(=O)O)c1`, which melting point is on record?
A: 74 to 78 °C

Q: Which melting point does the source give for `O=C1Nc2cc(Br)ccc2N2CCc3cccc1c32` here?
A: 255 to 257 °C

Q: With `c1coc(Cn2c(NC3CCNCC3)nc3cccnc32)c1` as the molecule, how does the melting point read?
A: 159 °C

Q: With `O=C(c1ccco1)N1N=CCC1c1ccccc1` (centres undefined) as the molecule, how does the melting point read?
A: 136 to 137 °C

Q: With `CCOC(=O)OCC1OC(n2cc(C=CBr)c(=O)[nH]c2=O)CC1Cl` (centres undefined) as the molecule, how does the melting point read?
A: 181 °C

Q: For `CCn1cc(C(=O)O)c(=O)c2cc(F)c(N3CCNC(c4ccc(C)o4)C3)cc21` (centres undefined), which melting point is on record?
A: 186 to 188 °C

Q: Which melting point does the source give for `CCCCS(=O)(=O)Nc1ccccc1Oc1ccc2ncccc2c1` here?
A: 131 to 133 °C

Q: With `COCC1OC(=O)NC1c1ccccc1OC(C)(O)C1CCCCC1` (centres undefined) as the molecule, how does the melting point read?
A: 87 °C

Q: With `CCOC(=O)c1c(C)nc(C(C)C)c2nnn(CC)c12` as the molecule, how does the melting point read?
A: 55 to 57 °C

Q: With `CC(C)Oc1ccc(CCCOc2nn(C)cc2CC(=O)O)c(Oc2ncc(C(F)(F)F)cc2Cl)c1` as the molecule, how does the melting point read?
A: 92 to 94 °C

Q: Which melting point does the source give for `CN(C)c1ccc(C2OC(C)(C)N=C2c2ccccc2Cl)cc1` (centres undefined) here?
A: 72.5 to 73.5 °C

Q: Which melting point does the source give for `O=C(O)COc1cccc2c1CCC(CNC(=O)OC(c1ccccc1)c1ccccc1)C2` (centres undefined) here?
A: 160 to 161 °C

Q: With `CN(C)S(=O)(=O)c1ccccc1S(=O)(=O)NC(=O)Nc1nc(F)cc(OC(F)(F)F)n1` as the molecule, how does the melting point read?
A: 167 to 169 °C

Q: With `N#Cc1cn(COCCO)c2ncnc(N)c12` as the molecule, how does the melting point read?
A: 178 °C

Q: For `O=C(c1ccccc1)c1cc2ccncc2n1S(=O)(=O)c1ccccc1`, which melting point is on record?
A: 145 to 146 °C

Q: For `N#Cc1ccc(N(Cc2ccc(O)cc2)n2cncn2)cc1-c1ccccc1`, which melting point is on record?
A: 169 to 170 °C

Q: For `N#CC1(Cl)C=C(OCc2ccccc2)C=NC1` (centres undefined), which melting point is on record?
A: 114 to 115 °C

Q: For `CCOC(=O)c1cc2cccc([N+](=O)[O-])c2n1COC`, which melting point is on record?
A: 62 to 63 °C

Q: For `CCOc1cnc(C2=NC(=O)C(C)(C(C)C)N2)c(C(=O)O)c1` (centres undefined), which melting point is on record?
A: 140 to 144 °C

Q: With `COc1c(C(=O)C=Cc2ccncc2)cc(Cl)c(N)c1OC` as the molecule, how does the melting point read?
A: 220 to 223 °C

Q: For `Cc1cc(COc2ccc(S(=O)(=O)NC[C@@H](C(=O)NO)N3CCN(Cc4ccc(C(F)(F)F)cc4)CC3)cc2)c2ccccc2n1`, which melting point is on record?
A: 148 °C
